This note sets out measurements from ChEMBL document CHEMBL4342511, “Discovery and Optimization of wt-RET/KDR-Selective Inhibitors of RETV804M Kinase” (ACS Med Chem Lett, 2020).

Each structure is given as a SMILES string. Converted amounts (≈) assume the structure as drawn.

Data set [1] is filed under the species Homo sapiens. Nature of the data set: Selectivity index, ratio of IC50 for GST-tagged human RET expressed in baculovirus to IC50 for recombinant N-Terminal GST-tagged human RET V804M mutant (658 to end residues).
The species entered for data set [2] is Homo sapiens. Nature of the data set: Selectivity index, ratio of IC50 for N-terminal His6-tagged recombinant human KDR (790 to end residue) expressed in baculovirus in Sf21 insect cells to IC50 for recombinant N-Terminal GST-tagged human RET V804M mutant (658 to end residues).
Data set [3] deals with Proto-oncogene tyrosine-protein kinase receptor Ret (Homo sapiens, UniProt P07949, V804M).
Chain of Proto-oncogene tyrosine-protein kinase receptor Ret (P07949 29-1114 V804M limits assumed): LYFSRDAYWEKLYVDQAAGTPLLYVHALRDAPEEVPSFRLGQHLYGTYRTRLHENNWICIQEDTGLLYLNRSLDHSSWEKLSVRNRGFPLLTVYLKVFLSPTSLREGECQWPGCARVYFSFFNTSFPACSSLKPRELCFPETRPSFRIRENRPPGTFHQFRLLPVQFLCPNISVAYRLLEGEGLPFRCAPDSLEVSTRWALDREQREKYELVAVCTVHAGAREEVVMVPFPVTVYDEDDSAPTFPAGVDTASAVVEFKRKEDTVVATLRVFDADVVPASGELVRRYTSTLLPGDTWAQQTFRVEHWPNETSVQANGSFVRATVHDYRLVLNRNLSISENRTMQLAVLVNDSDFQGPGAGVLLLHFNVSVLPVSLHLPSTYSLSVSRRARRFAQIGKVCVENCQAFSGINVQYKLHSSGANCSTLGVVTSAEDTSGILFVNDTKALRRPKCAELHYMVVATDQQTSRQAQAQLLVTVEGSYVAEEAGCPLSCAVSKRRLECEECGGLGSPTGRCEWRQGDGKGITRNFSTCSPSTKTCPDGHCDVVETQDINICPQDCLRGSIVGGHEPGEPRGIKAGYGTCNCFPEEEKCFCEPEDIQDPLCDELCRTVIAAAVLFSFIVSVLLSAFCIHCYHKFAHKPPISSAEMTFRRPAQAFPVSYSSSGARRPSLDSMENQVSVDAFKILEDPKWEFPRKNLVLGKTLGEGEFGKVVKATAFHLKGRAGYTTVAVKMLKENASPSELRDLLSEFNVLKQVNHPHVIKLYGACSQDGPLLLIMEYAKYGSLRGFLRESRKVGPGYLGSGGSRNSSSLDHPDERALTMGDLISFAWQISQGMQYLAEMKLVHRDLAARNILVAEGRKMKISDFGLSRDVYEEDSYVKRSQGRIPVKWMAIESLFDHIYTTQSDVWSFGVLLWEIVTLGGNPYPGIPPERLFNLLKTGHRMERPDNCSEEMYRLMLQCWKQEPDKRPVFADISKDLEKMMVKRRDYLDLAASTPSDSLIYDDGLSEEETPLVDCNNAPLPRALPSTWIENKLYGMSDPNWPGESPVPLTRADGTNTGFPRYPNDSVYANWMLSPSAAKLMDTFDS
Data set [4] is filed under the species Homo sapiens. Put plainly: Selectivity index, ratio of IC50 for RET (unknown origin) expressed in BaF3 cells to IC50 for RET V804M mutant (unknown origin) expressed […] cells. Format: cell-based.
For data set [5], the species on record is Homo sapiens. Put plainly: Selectivity index, ratio of IC50 for KDR (unknown origin) expressed in BaF3 cells to IC50 for RET V804M mutant (unknown origin) expressed […] cells. The format is cell-based.
Data set [6] is described as follows: Kinetic solubility of compound. The settings on record: read-out: Kinetic_solubility. Format: physicochemical.
Data set [7] in a line: Apparent permeability in human Caco2 cells. The format is ADME, cell-based. The settings on record: Caco-2. (Caco-2 monolayers are a common model of the intestinal barrier.)
Data set [8] is described as follows: Metabolic stability in mouse liver microsomes assessed as intrinsic clearance. Format: ADME, Microsome. The conditions noted are these: read-out: CLH.
The nature of data set [9]: Efflux ratio of apparent permeability in human Caco2 cells. Format: ADME, cell-based. The settings on record: Caco-2.

By IC50 is commonly meant the midpoint of a concentration-inhibition curve. The Papp is the rate of passage across a membrane or cell layer, normalised by area and donor concentration. As usually defined, the efflux ratio is a quotient of directional permeabilities that is used to spot active efflux.

Turning to `c1cc2c(cc1-c1cnn3ccc(NCCN4CCCCC4)nc13)OCO2`, the Ratio IC50 is 5.3 in data set [1] and 34 in data set [2]. In addition, the IC50 in data set [3] stood at 0.66 µM.

For `c1cc(CNc2ccn3ncc(-c4ccc5cn[nH]c5c4)c3n2)ccn1`, the Ratio IC50 came out at 18 in data set [1], 83 in [2], 1.9 in data set [4] and 1.9 in [5]. This molecule returned a 50% inhibitory concentration (IC50) in data set [3] of 0.3 µM.

In the case of `CS(=O)(=O)Nc1ccc(-c2cnn3ccc(NCc4ccncc4)nc23)cc1`, the Ratio IC50 was 0.28 in data set [1] and 29 in [2]. Besides, in data set [3], the half-maximal inhibitory concentration (IC50) was determined as 1.5 µM.

Turning to `NC(=O)c1ccc(-c2cnn3ccc(NCc4cccnc4)nc23)cc1`, the Ratio IC50 in data set [1] stood at 13; in data set [2], 19; in data set [4], 0.85; in data set [5], 1.9. Also, half-maximal inhibition in [3] (IC50) required 0.051 µM.

`c1ccc(CNc2ccn3ncc(-c4ccc5c(c4)OCO5)c3n2)nc1`: the Ratio IC50 amounted to 14 in data set [1], 100 in data set [2], 3.1 in data set [4] and 7.6 in data set [5]. Half-maximal inhibition in data set [3] (IC50) was put at 0.039 µM.

Consider `c1ccc(-c2cnn3ccc(NCc4ccncc4)nc23)cc1`, for which the results for the Ratio IC50 in data set [1] and in data set [2] were 2.4 and 0.96, respectively. Also, half-maximal inhibition in [3] (IC50) was put at 1.14 µM.

As for `c1cc(Nc2ccn3ncc(-c4ccc5c(c4)OCO5)c3n2)ccn1`, the Ratio IC50 in data set [1] and in data set [2] was 2.1 in each case. The same molecule yielded an IC50 in [3] of 63 µM.

For the molecule `CN(C)CCCNc1ccn2ncc(-c3ccc4c(c3)OCO4)c2n1`, the Ratio IC50 in [1] is 16; in data set [2], 410; in data set [4] it was 32; in [5] it was 76. In addition, the solubility kinetic in [6] was above 100 µM. Also, in data set [7], the Papp is 22.8 ×10⁻⁶ cm/s. Moreover, the microsomal CLint in data set [8] turned out to be 62 µL/min/mg. The efflux ratio in data set [9] turned out to be 1.4. Further, inhibition in data set [3] was half-maximal at 0.019 µM (IC50).

Regarding `CN(C)C(=O)c1ccc(-c2cnn3ccc(NCc4ccncc4)nc23)cc1`, the results for the Ratio IC50 in [1] and in [2] were 1.8 and 3.9, respectively. Besides, the IC50 in data set [3] worked out at 7.6 µM.

For the molecule `c1cc2c(cc1-c1cnn3ccc(NC4CCNCC4)nc13)OCO2`, the Ratio IC50 in data set [1] was 1.2; in data set [2] it was 17. Moreover, it took 0.88 µM to reach half-maximal inhibition in [3] (IC50).

For `c1cc(CNc2ccn3ncc(-c4ccc5c(c4)OCO5)c3n2)ccn1`, the Ratio IC50 stood at 0.64 in data set [1], 27 in data set [2], 2.2 in data set [4] and 6.2 in [5]. For the same molecule, the solubility kinetic in [6] was 30 µM (≈ 10.4 µg/mL). Half-maximal inhibition in data set [3] (IC50) was put at 0.29 µM.

`c1cc2c(cc1-c1cnn3ccc(NCC4CCNCC4)nc13)OCO2`: the Ratio IC50 came to 1.2 in data set [1], 64 in data set [2], 0.85 in data set [4] and 2.6 in data set [5]. Moreover, the IC50 in data set [3] was determined as 0.2 µM.

`O=C(O)c1ccc(-c2cnn3ccc(NCc4ccncc4)nc23)cc1`: the Ratio IC50 is 1.2 in [1] and 1.8 in data set [2]. This molecule gave an IC50 in data set [3] of 0.56 µM.

Consider `CN(C)CCNc1ccn2ncc(-c3ccc4c(c3)OCO4)c2n1`, for which the Ratio IC50 was found to be 21 in data set [1], 540 in [2], 9.8 in data set [4] and 13 in data set [5]. The concentration for half-maximal inhibition (IC50) in [3] came to 0.091 µM.

As for `OCCNc1ccn2ncc(-c3ccc4c(c3)OCO4)c2n1`, the Ratio IC50 in data set [1] is 15; in data set [2], 19; in data set [4] it was 1.5; in [5], 1.5. The molecule also came in with an IC50 in data set [3] of 0.13 µM.

`c1ccc(CNc2ccn3ncc(-c4ccc5c(c4)OCO5)c3n2)cc1`: the figures for the Ratio IC50 in data set [1] and in data set [2] were 0.16 and 2.3, respectively. Further, in [3], the IC50 amounted to 29 µM.

With `NC(=O)c1ccc(-c2cnn3ccc(NCc4ccncc4)nc23)cc1`, the Ratio IC50 in data set [1] amounted to 3.7; in data set [2], 110; in [4] it was 0.89; in data set [5], 2.3. In data set [3], this molecule returned a half-maximal inhibitory concentration (IC50) of 0.02 µM.

On to `CN(C)CCNc1ccn2ncc(-c3ccc(C(N)=O)cc3)c2n1`, for which the Ratio IC50 in [1] amounted to 4.7; in [2], 54; in data set [4], 0.3; in data set [5] it was 0.83. In addition, the IC50 in [3] was found to be 0.35 µM.

`NS(=O)(=O)c1ccc(-c2cnn3ccc(NCc4ccncc4)nc23)cc1`: the Ratio IC50 in data set [1] came out at 1.3; in data set [2], 220; in data set [4], 1; in [5] it was 1. For the same molecule, it took 0.36 µM to reach half-maximal inhibition in data set [3] (IC50).

As for `NC(=O)c1ccc(-c2cnn3ccc(NCc4ccccn4)nc23)cc1`, the Ratio IC50 in data set [1] is 19; in [2], 22; in data set [4] it was 0.9; in data set [5], 2. The molecule also had a half-maximal inhibitory concentration (IC50) in data set [3] of 0.044 µM.

On to `CC(=O)Nc1ccc(-c2cnn3ccc(NCc4ccncc4)nc23)cc1`, for which the values for the Ratio IC50 in data set [1] and in data set [2] were 2.6 and 4.4, respectively. Moreover, inhibition in data set [3] was half-maximal at 6.7 µM (IC50).

Regarding `NC(=O)c1cccc(-c2cnn3ccc(NCc4ccncc4)nc23)c1`, the Ratio IC50 in data set [2] was 8. The molecule further registered an IC50 in data set [3] of 4.3 µM.

`CC(=O)Nc1cccc(-c2cnn3ccc(NCc4ccncc4)nc23)c1`: the Ratio IC50 came out at 4 in [1] and 22 in data set [2]. This molecule also gave an IC50 in [3] of 1.6 µM.
